Test results published in PMC9821237, “Spectroscopic Characterization and Biological Activity of Hesperetin Schiff Bases and Their Cu(II) Complexes” (International Journal of Molecular Sciences, 2023).
Read-outs that look alike come from different tables or passages of the source. Marks after values point to notes of the source that are not given here.

How the values were obtained:
HeLa cells [1] = assay: Neutral comet assay, DNA double-strand breaks (DSBs); assay type: cell-based, human; settings: 50 µM
Experimental: The ability of tested compounds (at concentration of 50 µM) to induce DNA double-strand breaks (DSBs) in model HeLa cells was evaluated by the neutral comet assay according to Błasiak et al. (2012). In this version of the comet assay electrophoresis ran in a buffer consisting of 100 mM Tris and 300 mM sodium acetate at pH 9.0 (with glacial acetic acid). Electrophoresis was conducted for 60 min, after a 20 min equilibrium period, at an electric field strength of 0.41 V/cm (50 mA) at 4 °C. The slides were then proceeded as described in the “Single-cell gel electrophoresis assay” section.

HeLa cells [2] = assay: Comet assay with endonuclease III, oxidative DNA damage; assay type: cell-based, human; settings: 50 µM, net damage recognised by Endo III (oxidative DNA damage)
Experimental: Oxidative DNA damage was evaluated with the DNA repair enzyme–endonuclease III (Endo III, New England Biolabs Inc., Germany) in model HeLa cells. The procedure was performed according to [67]. To estimate the ability of the enzyme to recognize oxidized DNA bases, the cells were incubated either with tested compounds (at concentration of 50 µM), or hydrogen peroxide (50 µM), lysed and post-treated with Endo III. After lysis slides were washed three times in an enzyme buffer (composed of 40 mM HEPES-KOH, 0.1 KCl, 0.5 mM EDTA, 0.2 mg/mL bovine serum albumin, pH 8.0) and drained, and the agarose was covered with 25 µL of either enzyme buffer or enzyme at 1 µg/mL in buffer, sealed with a cover glass and incubated for 30 min at 37°C. Further steps were described above. To determine the net value of DNA damage recognized by the enzyme, the DNA damage observed in the absence of the enzyme was subtracted from that measured in the presence of it.

HeLa cells [3] = assay: Alkaline comet assay, basal endogenous DNA damage; settings: 1 h, mean ± S.E.M.
Caco-2 cells [4] = assay: Alkaline comet assay, basal endogenous DNA damage; settings: Caco-2, 50 µM, 1 h, mean ± S.E.M.
LLC-PK1 cells = assay: Alkaline comet assay, basal endogenous DNA damage; settings: LLC-PK1, 50 µM, 1 h, mean ± S.E.M.
Caco-2 cells [5] = settings: human, 1 h, 50 µM

Row | Structure (SMILES) | Mean DNA (%) in Comet Tail (±S.E.M.) of HeLa Cells, DSBs (HeLa cells [1]) | Mean DNA (%) in Comet Tail (±S.E.M.) of HeLa Cells, Endo III (HeLa cells [2]) | DNA damage, percentage of DNA in the comet tail (HeLa cells [3]; 1 µM) | DNA damage, percentage of DNA in the comet tail (Caco-2 cells [4]) | DNA damage, percentage of DNA in the comet tail (LLC-PK1 cells) | DNA damage, percentage of DNA in the comet tail (Caco-2 cells [5]) | DNA damage, percentage of DNA in the comet tail (HeLa cells [3]; 50 µM)
1 | COc1ccc(C2C/C(=N\NC(=O)c3ccccc3)c3c([O][Cu][O]C(C)=O)cc(O)cc3O2)cc1O (stereo not drawn) [CuHHSB, (E)-acetoxy((4-(2-benzoylhydrazono)-7-hydroxy-2-(3-hydroxy-4-methoxyphenyl)chroman-5-yl)oxy)copper] | 14.4 ± 0.7 ^a,b % | 8.3 ± 2.7 ^a % | – | – | – | – | –
2 | COc1ccc(C2C/C(=N\NC(=O)c3ccncc3)c3c([O][Cu][O]C(C)=O)cc(O)cc3O2)cc1O (stereo not drawn) [CuHIN, (E)-acetoxy((7-hydroxy-2-(3-hydroxy-4-methoxyphenyl)-4-(2-isonicotinoylhydrazono)chroman-5-yl)oxy)copper] | 7.7 ± 3.6 ^a % | 12.2 ± 4.2 ^a % | – | – | – | – | –
3 | COc1ccc(C2C/C(=N\NC(N)=S)c3c([O][Cu][O]C(C)=O)cc(O)cc3O2)cc1O (stereo not drawn) [CuHTSC, (E)-acetoxy((4-(2-carbamothioylhydrazono)-7-hydroxy-2-(3-hydroxy-4-methoxyphenyl)chroman-5-yl)oxy)copper] | 6.4 ± 2.3 ^a,c % | 11.6 ± 1.9 ^a % | – | – | – | – | –
4 | COc1ccc(C2CC(=NNC(=O)c3ccccc3)c3c(O)cc(O)cc3O2)cc1O (stereo not drawn) [HHSB, N-[2,3-dihydro-5,7-dihydroxy-2-(3-hydroxy-4-methoxyphenyl)chromen-4-ylidene]benzhydrazide] | – | 7.5 ± 3.9 ^a % | 28.8% ± 4.1% | 34.0% ± 4.6% | 26.3% ± 4.8% | – | –
5 | COc1ccc(C2CC(=NNC(=O)c3ccncc3)c3c(O)cc(O)cc3O2)cc1O (stereo not drawn) [HIN, N-[2,3-dihydro-5,7-dihydroxy-2-(3-hydroxy-4-methoxyphenyl)chromen-4-ylidene]isonicotinohydrazide] | 19.5 ± 0.7 ^a % | 5.3 ± 3.5 ^a % | 28.9% ± 3.5% | 23.1% ± 3.4% | – | – | –
6 | COc1ccc(C2CC(=NNC(N)=S)c3c(O)cc(O)cc3O2)cc1O (stereo not drawn) [HTSC, N-[2,3-dihydro-5,7-dihydroxy-2-(3-hydroxy-4-methoxyphenyl)chromen-4-ylidene]thiosemicarbazide] | 13.5 ± 0.7 ^a,c % | 10.2 ± 2.0 ^a % | – | – | – | 32.8% ± 4.4% | –
7 | N.N.[Cl][Pt][Cl] [cisplatin, reference compound] | 30.2 ± 3.4% | 26.5 ± 3.9% | – | – | 73.1% ± 3.3% | – | –
8 | OO [hydrogen peroxide, reference compound] | – | 26.2% ± 4.6% | – | 42.0% ± 3.6% | 54.1% ± 0.2% | – | 50.3% ± 0.6%
